Measured values published in patent publication US20150065575A1, “S100A8/A9 as a Diagnostic Marker and a Therapeutic Target” (Sloan-Kettering Institute for Cancer Research, priority 2012, published 2015).

Tests used:
PMN = conditions: similar potencies for both; cited from earlier work
[1] = system: LM2 and CN34LM1 lung metastatic human breast cancer cell lines; assay: Preclinical trial of AC chemotherapy and CXCR2 antagonist in orthotopic lung metastatic breast cancer xenografts; type: in vivo, mice
Procedure: Data represent average expression±SEM. n=10-13 mice per group. P values were determined by Student's t-test. *p=0.02, **p=0.007.
Data are average foci per field of view (FOV)±SEM. n=5-10 mice per group. Whiskers represent minimum and maximum values. P values were determined by two-tailed Wilcoxon rank-sum test.
Tumor vessel characteristics and lung metastatic foci size and number were quantified using Metamorph software (Molecular Devices) as previously described (DeNardo et al., 2009; Gupta et al., 2007). In brief, 10 random images at 20× magnification were taken per tumor section stained with CD34, MECA32 or Von Willebrand factor by immunohistochemistry. Images were thresholded, stained area was calculated by counting objects per field and vessel characteristics were analyzed using Metamorph measurement module. For quantitating lung metastatic foci area and number, 8-12 random images at 20× magnification were taken per lung section stained with vimentin by immunohistochemistry. A minimum of 5 sections was analyzed per animal across different depths of the tissue. For quantitation, images were thresholded and number of metastatic foci determined. Metastatic foci was considered if they contained more than 5 cells. Foci were counted and analyzed using Metamorph measurement module. […]

Compound	CXCL8- and CXCL1-mediated PMN chemotaxis (PMN)	lung metastatic burden ([1]; CXCR2 inhibitor combined with AC chemotherapy)	S100A9 expressing cells (immunostaining) ([1]; CXCR2 inhibitor/chemotherapy treatment)
C[C@@H](C(N)=O)c1ccc(OS(=O)(=O)C(F)(F)F)cc1 [4-[(1R)-2-amino-1-methyl-2-oxoethyl]phenyl trifluoromethane sulfonate]	inhibit		
N#Cc1ccc(NC(=O)Nc2ccccc2Br)c2n[nH]nc12 [CXCR2 inhibitor]		markedly reduced	significant reduction
